# Assays:
# [1] = system: Monochoria vaginalis, Presl.; test: Preemergence weed control under flooded paddy conditions, MOOVA (Monochoria); format: in vivo; conditions: preemergence, flooded paddy
# Cyperus iria = test: Preemergence weed control under flooded paddy conditions, CYPIR (Rice Flatsedge); format: in vivo; conditions: preemergence, flooded paddy
# Sagittaria pygmaea, L. = test: Preemergence weed control under flooded paddy conditions, SAGPY (Arrowhead (Pygmaea)); format: in vivo; conditions: preemergence, flooded paddy
# [2] = system: Oryza sativa, (L.) Tebonnet; test: Rice tolerance to post-transplant applications under flooded paddy conditions (Example 187), ORYSAT (Rice, Tebonnet)
# [3] = system: Echinochloa oryzoides (Ard.) Fritsch.; test: Preemergence weed control under flooded paddy conditions, ECHORC (Watergrass (Calif.)); format: in vivo; conditions: preemergence, flooded paddy
# [4] = system: Cyperus serotinus, Rottb.; test: Preemergence weed control under flooded paddy conditions, CYPSE (Flatsedge); format: in vivo; conditions: preemergence
# [5] = Rate 0.0320 kg/ha, rated 3-4 weeks after treatment
# [6] = Rate 0.0620 kg/ha, rated 3-4 weeks after treatment
# [7] = Rate 0.1250 kg/ha, rated 3-4 weeks after treatment
# [8] = Rate 0.2500 kg/ha, rated 3-4 weeks after treatment
# [9] = Rate 0.0320 kg/ha, rated three to four weeks after treatment
# [10] = Rate 0.0620 kg/ha, rated three to four weeks after treatment
# [11] = Rate 0.1250 kg/ha, rated three to four weeks after treatment
# [12] = Rate 0.2500 kg/ha, rated three to four weeks after treatment
# Further: meaning of each grade not given here.
smiles,measurement,setting,value
"CON(C)C(=O)/C=C/c1nsc2ccc(-n3c(=O)cc(C(F)(F)F)n(C)c3=O)cc12 [Example 565, 1,2-Benzisothiazole-3-acrylamide, 5-[3,6-dihydro-3-methyl-2,6-dioxo-4-(trifluoromethyl)-1(2H)-pyrimidinyl]-N-methoxy-N-methyl-, (E)-]","herbicidal effect rating, MOOVA",[1]; [5],9.0
same,"herbicidal effect rating, MOOVA",[1]; [6],9.0
same,"herbicidal effect rating, MOOVA",[1]; [7],9.0
same,"herbicidal effect rating, MOOVA",[1]; [8],9.0
same,"herbicidal effect rating, CYPIR",Cyperus iria; [5],0.0
same,"herbicidal effect rating, CYPIR",Cyperus iria; [6],3.0
same,"herbicidal effect rating, CYPIR",Cyperus iria; [7],6.0
same,"herbicidal effect rating, CYPIR",Cyperus iria; [8],6.0
same,"herbicidal effect rating, SAGPY","Sagittaria pygmaea, L.; [5]",0.0
same,"herbicidal effect rating, SAGPY","Sagittaria pygmaea, L.; [6]",0.0
same,"herbicidal effect rating, SAGPY","Sagittaria pygmaea, L.; [7]",0.0
same,"herbicidal effect rating, SAGPY","Sagittaria pygmaea, L.; [8]",0.0
same,herbicidal effect rating ORYSAT,[2]; [5],0.0
same,herbicidal effect rating ORYSAT,[2]; [6],0.0
same,herbicidal effect rating ORYSAT,[2]; [7],2.0
same,herbicidal effect rating ORYSAT,[2]; [8],3.0
same,"herbicidal effect rating, ECHORC",[3]; [5],0.0
same,"herbicidal effect rating, ECHORC",[3]; [6],0.0
same,"herbicidal effect rating, ECHORC",[3]; [7],0.0
same,"herbicidal effect rating, ECHORC",[3]; [8],0.0
same,"herbicidal effect rating, CYPSE",[4]; [5],0.0
same,"herbicidal effect rating, CYPSE",[4]; [6],0.0
same,"herbicidal effect rating, CYPSE",[4]; [7],0.0
same,"herbicidal effect rating, CYPSE",[4]; [8],0.0
"C=CCOC(=O)/C=C/c1nsc2ccc(-n3c(=O)cc(C(F)(F)F)n(C)c3=O)cc12 [Example 566, 1,2-Benzisothiazole-3-acrylic acid, 5-[3,6-dihydro-3-methyl-2,6-dioxo-4-(trifluoromethyl)-1(2H)-pyrimidinyl]-, allyl ester, (E)-]","herbicidal effect rating, MOOVA",[1]; [5],9.0
same,"herbicidal effect rating, MOOVA",[1]; [6],9.0
same,"herbicidal effect rating, MOOVA",[1]; [7],9.0
same,"herbicidal effect rating, MOOVA",[1]; [8],9.0
same,"herbicidal effect rating, CYPIR",Cyperus iria; [5],0.0
same,"herbicidal effect rating, CYPIR",Cyperus iria; [6],0.0
same,"herbicidal effect rating, CYPIR",Cyperus iria; [7],0.0
same,"herbicidal effect rating, CYPIR",Cyperus iria; [8],9.0
same,"herbicidal effect rating, SAGPY","Sagittaria pygmaea, L.; [5]",0.0
same,"herbicidal effect rating, SAGPY","Sagittaria pygmaea, L.; [6]",0.0
same,"herbicidal effect rating, SAGPY","Sagittaria pygmaea, L.; [7]",0.0
same,"herbicidal effect rating, SAGPY","Sagittaria pygmaea, L.; [8]",9.0
same,herbicidal effect rating ORYSAT,[2]; [6],3.0
same,herbicidal effect rating ORYSAT,[2]; [7],5.0
same,herbicidal effect rating ORYSAT,[2]; [8],6.0
same,"herbicidal effect rating, ECHORC",[3]; [5],3.0
same,"herbicidal effect rating, ECHORC",[3]; [6],3.0
same,"herbicidal effect rating, ECHORC",[3]; [7],3.0
same,"herbicidal effect rating, ECHORC",[3]; [8],6.0
same,"herbicidal effect rating, CYPSE",[4]; [5],0.0
same,"herbicidal effect rating, CYPSE",[4]; [6],0.0
same,"herbicidal effect rating, CYPSE",[4]; [7],0.0
same,"herbicidal effect rating, CYPSE",[4]; [8],3.0
"CC/C(C=O)=C\c1nsc2ccc(-n3c(=O)cc(C(F)(F)F)n(C)c3=O)cc12 [Example 567, 1,2-Benzisothiazole-3-acrylaldehyde, 5-[3,6-dihydro-3-methyl-2,6-dioxo-4-(trifluoromethyl)-1(2H)-pyrimidinyl]-alpha-ethyl-, (E)-]","herbicidal effect rating, MOOVA",[1]; [9],0.0
same,"herbicidal effect rating, MOOVA",[1]; [10],3.0
same,"herbicidal effect rating, MOOVA",[1]; [11],9.0
same,"herbicidal effect rating, MOOVA",[1]; [12],9.0
same,"herbicidal effect rating, CYPIR",Cyperus iria; [9],4.0
same,"herbicidal effect rating, CYPIR",Cyperus iria; [10],9.0
same,"herbicidal effect rating, CYPIR",Cyperus iria; [11],4.0
same,"herbicidal effect rating, CYPIR",Cyperus iria; [12],9.0
same,"herbicidal effect rating, SAGPY","Sagittaria pygmaea, L.; [9]",0.0
same,"herbicidal effect rating, SAGPY","Sagittaria pygmaea, L.; [10]",0.0
same,"herbicidal effect rating, SAGPY","Sagittaria pygmaea, L.; [11]",0.0
same,"herbicidal effect rating, SAGPY","Sagittaria pygmaea, L.; [12]",0.0
same,herbicidal effect rating ORYSAT,[2]; [9],0.0
same,herbicidal effect rating ORYSAT,[2]; [10],0.0
same,herbicidal effect rating ORYSAT,[2]; [11],1.0
same,herbicidal effect rating ORYSAT,[2]; [12],2.0
same,"herbicidal effect rating, ECHORC",[3]; [9],0.0
same,"herbicidal effect rating, ECHORC",[3]; [10],0.0
same,"herbicidal effect rating, ECHORC",[3]; [11],2.0
same,"herbicidal effect rating, ECHORC",[3]; [12],4.0
same,"herbicidal effect rating, CYPSE",[4]; [9],0.0
same,"herbicidal effect rating, CYPSE",[4]; [10],0.0
same,"herbicidal effect rating, CYPSE",[4]; [11],0.0
same,"herbicidal effect rating, CYPSE",[4]; [12],0.0
"Cc1ccc(OC(C)C(=O)NS(=O)(=O)C(C)C)c(-c2nsc3ccc(-n4c(=O)cc(C(F)(F)F)n(C)c4=O)cc23)c1 (centres unmarked) [Example 568, Propionamide, 2-{{2-{5-[3,6-dihydro-3-methyl-2,6-dioxo-4-(trifluoromethyl)-1(2H)-pyrimidinyl]-1,2-benzisothiazol-3-yl}-p-tolyl}oxy}-N-(isopropylsulfonyl)-]","herbicidal effect rating, MOOVA",[1]; [9],0.0
same,"herbicidal effect rating, MOOVA",[1]; [10],9.0
same,"herbicidal effect rating, MOOVA",[1]; [11],9.0
same,"herbicidal effect rating, MOOVA",[1]; [12],9.0
same,"herbicidal effect rating, CYPIR",Cyperus iria; [9],0.0
same,"herbicidal effect rating, CYPIR",Cyperus iria; [10],0.0
same,"herbicidal effect rating, CYPIR",Cyperus iria; [11],5.0
same,"herbicidal effect rating, CYPIR",Cyperus iria; [12],7.0
same,"herbicidal effect rating, SAGPY","Sagittaria pygmaea, L.; [9]",0.0
same,"herbicidal effect rating, SAGPY","Sagittaria pygmaea, L.; [10]",0.0
same,"herbicidal effect rating, SAGPY","Sagittaria pygmaea, L.; [11]",0.0
same,"herbicidal effect rating, SAGPY","Sagittaria pygmaea, L.; [12]",0.0
same,herbicidal effect rating ORYSAT,[2]; [9],0.0
same,herbicidal effect rating ORYSAT,[2]; [10],0.0
same,herbicidal effect rating ORYSAT,[2]; [11],1.0
same,herbicidal effect rating ORYSAT,[2]; [12],3.0
same,"herbicidal effect rating, ECHORC",[3]; [9],0.0
same,"herbicidal effect rating, ECHORC",[3]; [10],3.0
same,"herbicidal effect rating, ECHORC",[3]; [11],5.0
same,"herbicidal effect rating, ECHORC",[3]; [12],6.0
same,"herbicidal effect rating, CYPSE",[4]; [9],0.0
same,"herbicidal effect rating, CYPSE",[4]; [10],0.0
same,"herbicidal effect rating, CYPSE",[4]; [11],0.0
same,"herbicidal effect rating, CYPSE",[4]; [12],0.0
"CCCS(=O)(=O)NC(=O)C(C)Oc1ccc(C)cc1-c1nsc2ccc(-n3c(=O)cc(C(F)(F)F)n(C)c3=O)cc12 (centres unmarked) [Example 569, Propionamide, 2-{{2-{5-[3,6-dihydro-3-methyl-2,6-dioxo-4-(trifluoromethyl)-1(2H)-pyrimidinyl]-1,2-benzisothiazol-3-yl}-p-tolyl}oxy}-N-(propyl-sulfonyl)-]","herbicidal effect rating, MOOVA",[1]; [9],4.0
same,"herbicidal effect rating, MOOVA",[1]; [10],6.0
same,"herbicidal effect rating, MOOVA",[1]; [11],6.0
same,"herbicidal effect rating, MOOVA",[1]; [12],6.0
same,"herbicidal effect rating, CYPIR",Cyperus iria; [9],0.0
same,"herbicidal effect rating, CYPIR",Cyperus iria; [10],0.0
same,"herbicidal effect rating, CYPIR",Cyperus iria; [11],0.0
same,"herbicidal effect rating, CYPIR",Cyperus iria; [12],0.0
same,"herbicidal effect rating, SAGPY","Sagittaria pygmaea, L.; [9]",0.0
same,"herbicidal effect rating, SAGPY","Sagittaria pygmaea, L.; [10]",0.0
same,"herbicidal effect rating, SAGPY","Sagittaria pygmaea, L.; [11]",0.0
same,"herbicidal effect rating, SAGPY","Sagittaria pygmaea, L.; [12]",9.0
same,herbicidal effect rating ORYSAT,[2]; [9],0.0
same,herbicidal effect rating ORYSAT,[2]; [10],0.0
same,herbicidal effect rating ORYSAT,[2]; [11],0.0
same,herbicidal effect rating ORYSAT,[2]; [12],1.0
same,"herbicidal effect rating, ECHORC",[3]; [9],2.0
same,"herbicidal effect rating, ECHORC",[3]; [10],4.0
same,"herbicidal effect rating, ECHORC",[3]; [11],5.0
same,"herbicidal effect rating, ECHORC",[3]; [12],5.0
same,"herbicidal effect rating, CYPSE",[4]; [9],0.0
same,"herbicidal effect rating, CYPSE",[4]; [10],0.0
same,"herbicidal effect rating, CYPSE",[4]; [11],0.0
same,"herbicidal effect rating, CYPSE",[4]; [12],0.0
